Assay results as given in the NIST ThermoML archive (doi:10.1021/je400968v).

Experiment: mn = molality of the nth substance listed, in mol/kg
Settings: 101 kPa, Liquid; for viscosity: Capillary tube (Ostwald / Ubbelohde) method; for mass density: Vibrating tube method

Cc1c(N)cccc1N [2,6-diaminotoluene] + CCO
Settings	mass density, 293.15 K [kg/m3]	mass density, 303.15 K [kg/m3]	mass density, 313.15 K [kg/m3]	mass density, 323.15 K [kg/m3]	mass density, 333.15 K [kg/m3]	viscosity, 293.15 K [mPa·s]	viscosity, 303.15 K [mPa·s]	viscosity, 313.15 K [mPa·s]	viscosity, 323.15 K [mPa·s]	viscosity, 333.15 K [mPa·s]
m1 = 0.0503	791.34	782.75	773.98	765.05	755.93	1.193	0.983	0.814	0.68	0.569
m1 = 0.1002	793.1	784.49	775.72	766.78	757.66	1.206	0.991	0.823	0.686	0.573
m1 = 0.1497	794.82	786.2	777.43	768.49	759.36	1.221	1.002	0.829	0.69	0.578
m1 = 0.1996	796.54	787.9	779.12	770.18	761.05	1.233	1.011	0.835	0.696	0.582
m1 = 0.2496	798.23	789.59	780.81	771.86	762.72	1.245	1.021	0.843	0.7	0.586
m1 = 0.2997	799.92	791.26	782.49	773.53	764.4	1.258	1.03	0.849	0.707	0.591
m1 = 0.3496	801.55	792.9	784.13	775.18	766.04	1.272	1.04	0.857	0.711	0.595
m1 = 0.3995	803.2	794.53	785.77	776.81	767.67	1.286	1.05	0.864	0.718	0.6
m1 = 0.4497	804.84	796.16	787.4	778.43	769.3	1.3	1.061	0.872	0.723	0.604
m1 = 0.4995	806.45	797.75	789	780.03	770.89	1.313	1.07	0.879	0.731	0.609
m1 = 0.5495	808.02	799.33	790.56	781.61	772.46	1.328	1.08	0.888	0.736	0.613
m1 = 0.5995	809.61	800.9	792.14	783.18	774.03	1.342	1.09	0.895	0.742	0.618
m1 = 0.6492	811.1	802.44	793.67	784.72	775.55	1.357	1.102	0.903	0.746	0.622
m1 = 0.6984	812.63	803.98	795.19	786.23	777.07	1.372	1.112	0.91	0.753	0.626
m1 = 0.7488	814.15	805.51	796.73	787.77	778.61	1.389	1.124	0.919	0.758	0.631
m1 = 0.7991	815.68	807.02	798.25	789.3	780.13	1.408	1.134	0.926	0.762	0.636
